Laboratory results published in ChEMBL document CHEMBL2346598, “Synthesis and pharmacological characterization of 2-(acylamino)thiophene derivatives as metabolically stable, orally effective, positive allosteric modulators of the GABAB receptor” (J Med Chem, 2013).
Calls of active or inactive are those of the source. The calls are words filed in the database; no cut-off is given here.

What was measured:
Mus musculus [1] = test: Hypnotic effect in DBA mouse assessed as potentiation of baclofen-induced loss of righting reflex at 100 mg/kg, ip incubated for 30 mins prior to baclofen-challenge; assay type: functional, organism-based; design: dose 100 mg/kg
Mus musculus [2] = test: Hypnotic effect in DBA mouse assessed as potentiation of baclofen-induced loss of righting reflex at 10 mg/kg, ip incubated for 30 mins prior to baclofen-challenge; assay type: functional, organism-based; design: dose 10 mg/kg
Mus musculus [3] = test: Hypnotic effect in DBA mouse assessed as potentiation of baclofen-induced loss of righting reflex at 1 mg/kg, ip incubated for 30 mins prior to baclofen-challenge; assay type: functional, organism-based; design: dose 1 mg/kg
Mus musculus [4] = test: Hypnotic effect in DBA mouse assessed as reduction in pentobarbital-induced onset of loss of righting reflex at 300 mg/kg, ip incubated for 30 mins prior to pentobarbital-challenge (reference value: 60.0 +/- 0.0 min); assay type: functional; settings: route intraperitoneal
Rattus norvegicus [5] = species: Rattus norvegicus; test: Positive allosteric modulation of GABAB receptor in rat cortical membranes assessed as potentiation of GABA-induced [35S]GTPgammaS binding after 30 mins by liquid scintillation counting analysis; assay type: functional, cell membranes; settings: Membrane
Mus musculus [6] = test: Hypnotic effect in ip dosed DBA mouse assessed as increase in baclofen-induced duration of loss of righting reflex incubated for 30 mins prior to baclofen-challenge; assay type: functional, organism-based
Mus musculus [7] = test: Hypnotic effect in DBA mouse assessed as increase in baclofen-induced duration of loss of righting reflex at 300 mg/kg, ig incubated for 30 mins prior to baclofen-challenge relative to vehicle-treated control; assay type: functional, organism-based; design: dose 300 mg/kg
Mus musculus [8] = test: Hypnotic effect in DBA mouse assessed as potentiation of pentobarbital-induced loss of righting reflex at 300 mg/kg, ip incubated for 30 mins prior to pentobarbital-challenge; assay type: functional, organism-based; design: dose 300 mg/kg
Mus musculus [9] = test: Hypnotic effect in DBA mouse assessed as increase in baclofen-induced duration of loss of righting reflex at 100 to 300 mg/kg, ip incubated for 30 mins prior to baclofen-challenge relative to vehicle-treated control; assay type: functional, organism-based
Rattus norvegicus [10] = species: Rattus norvegicus; test: Positive allosteric modulation of GABAB receptor in rat cortical membranes assessed as potentiation of GABA-induced [35S]GTPgammaS binding at 2.5 uM after 30 mins by liquid scintillation counting analysis relative to GABA; assay type: functional, cell membranes; settings: Membrane
Mus musculus [11] = test: Hypnotic effect in DBA mouse assessed as increase in pentobarbital-induced duration of loss of righting reflex at 30 mg/kg, ip incubated for 30 mins prior to pentobarbital-challenge; assay type: functional; settings: route intraperitoneal
[12] = Intrinsic clearance in mouse liver microsomes assessed per mg protein at 5 uM after 60 mins by LC/MS/MS analysis; assay type: ADME, Microsome; settings: read-out: CLH
Mus musculus [13] = test: Hypnotic effect in DBA mouse assessed as potentiation of baclofen-induced loss of righting reflex at 300 mg/kg, ip incubated for 30 mins prior to baclofen-challenge; assay type: functional, organism-based; design: dose 300 mg/kg
Mus musculus [14] = test: Hypnotic effect in DBA mouse assessed as reduction in baclofen-induced onset of loss of righting reflex at 100 to 300 mg/kg, ip incubated for 30 mins prior to baclofen-challenge relative to vehicle-treated control; assay type: functional, organism-based
Mus musculus [15] = test: Hypnotic effect in DBA mouse assessed as reduction in pentobarbital-induced onset of loss of righting reflex at 100 mg/kg, ip incubated for 30 mins prior to pentobarbital-challenge (reference value: 60.0 +/- 0.0 min); assay type: functional; settings: route intraperitoneal
Mus musculus [16] = test: Hypnotic effect in DBA mouse assessed as potentiation of baclofen-induced loss of righting reflex at 30 mg/kg, ip incubated for 30 mins prior to baclofen-challenge; assay type: functional, organism-based; design: dose 30 mg/kg
[17] = Drug metabolism in mouse liver microsomes at 5 uM after 60 mins by LC/MS/MS analysis; assay type: ADME, Microsome; settings: read-out: Drug metabolism
Mus musculus [18] = test: Hypnotic effect in ip dosed DBA mouse assessed as reduction in baclofen-induced onset of loss of righting reflex incubated 30 mins prior to baclofen-challenge; assay type: functional, organism-based
Mus musculus [19] = test: Hypnotic effect in DBA mouse assessed as increase in pentobarbital-induced duration of loss of righting reflex at 300 mg/kg, ip incubated for 30 mins prior to pentobarbital-challenge; assay type: functional; settings: route intraperitoneal
Mus musculus [20] = test: Hypnotic effect in DBA mouse assessed as increase in pentobarbital-induced duration of loss of righting reflex at 100 mg/kg, ip incubated for 30 mins prior to pentobarbital-challenge; assay type: functional; settings: route intraperitoneal
Mus musculus [21] = test: Hypnotic effect in DBA mouse assessed as potentiation of baclofen-induced loss of righting reflex at 300 mg/kg, ig incubated for 30 mins prior to baclofen-challenge; assay type: functional, organism-based; design: dose 300 mg/kg
Rattus norvegicus [22] = species: Rattus norvegicus; test: Positive allosteric modulation of GABAB receptor in rat cortical membranes assessed as potentiation of GABA-induced [35S]GTPgammaS binding at 25 uM after 30 mins by liquid scintillation counting analysis relative to GABA; assay type: functional, cell membranes; settings: Membrane
Mus musculus [23] = test: Hypnotic effect in DBA mouse assessed as reduction in pentobarbital-induced onset of loss of righting reflex at 30 mg/kg, ip incubated for 30 mins prior to pentobarbital-challenge (reference value: 60.0 +/- 0.0 min); assay type: functional; settings: route intraperitoneal
Rattus norvegicus [24] = species: Rattus norvegicus; test: Positive allosteric modulation of GABAB receptor in rat cortical membranes assessed as stimulation of [35S]GTPgammaS binding up to 100 uM after 30 mins by liquid scintillation counting analysis; assay type: functional, cell membranes; settings: Membrane
Mus musculus [25] = test: Hypnotic effect in DBA mouse assessed as potentiation of pentobarbital-induced loss of righting reflex at 30 mg/kg, ip incubated for 30 mins prior to pentobarbital-challenge; assay type: functional, organism-based; design: dose 30 mg/kg
Mus musculus [26] = test: Hypnotic effect in DBA mouse assessed as reduction in baclofen-induced onset of loss of righting reflex at 300 mg/kg, ig incubated for 30 mins prior to baclofen-challenge relative to vehicle-treated control; assay type: functional, organism-based; design: dose 300 mg/kg
Mus musculus [27] = test: Hypnotic effect in DBA mouse assessed as potentiation of pentobarbital-induced loss of righting reflex at 100 mg/kg, ip incubated for 30 mins prior to pentobarbital-challenge; assay type: functional, organism-based; design: dose 100 mg/kg
Plasma = test: Metabolic stability in mouse plasma at 5 uM after 30 mins by HPLC-MS analysis; assay type: ADME, cell-free; settings: 0.5 h
NIH3T3 = test: Cytotoxicity against mouse NIH/3T3 cells after 24 hrs by neutral red staining-based UV/visible spectrophotometric analysis; assay type: cell-based; settings: NIH3T3, 24 h
[28] = Elimination rate constant in mouse liver microsomes at 5 uM after 60 mins by LC/MS/MS analysis; assay type: ADME, Microsome
Mus musculus [29] = test: Hypnotic effect in DBA mouse assessed as potentiation of baclofen-induced loss of righting reflex at 3 mg/kg, ip incubated for 30 mins prior to baclofen-challenge; assay type: functional, organism-based; design: dose 3 mg/kg

For CCc1c(C)sc(NC(=O)c2ccc(C)cc2)c1C(=O)OC, which Activity (Mus musculus [1]) is on record?
The Activity was “Active”.

And the Activity (Mus musculus [2])?
The Activity was “Active”.

What about the Activity (Mus musculus [3]) of the same molecule?
Its Activity is “inactive”.

And the Time (Mus musculus [4])?
The Time was 26.7 min.

And the Activity (Rattus norvegicus [5])?
Its Activity is “inactive”.

And the Activity (Mus musculus [6])?
Its Activity is “Dose-dependent effect”.

And the Activity (Mus musculus [7])?
The Activity was “Active”.

And the Activity (Mus musculus [8])?
Its Activity is “Active”.

What about the Activity (Mus musculus [9]) of the same molecule?
Its Activity is “Active”.

And the Activity (Rattus norvegicus [10])?
Its Activity is 3.7%.

And the Time (Mus musculus [11])?
The Time was 4.7 min.

What about the microsomal CLint at 5 µM [12] of the same molecule?
Its microsomal CLint at 5 µM is 7.73 µL/min/mg.

What about the Activity (Mus musculus [13]) of the same molecule?
The Activity was “Active”.

What about the Activity (Mus musculus [14]) of the same molecule?
Its Activity is “Active”.

And the Time (Mus musculus [15])?
Its Time is 43.8 min.

What about the Activity (Mus musculus [16]) of the same molecule?
The Activity was “Active”.

And the metabolised at 1 h, 5 µM [17]?
The metabolised at 1 h, 5 µM was 28%.

And the Activity (Mus musculus [18])?
Its Activity is “Dose-dependent effect”.

And the Time (Mus musculus [19])?
The Time was 14 min.

And the Time (Mus musculus [20])?
Its Time is 11.2 min.

What about the Activity (Mus musculus [21]) of the same molecule?
The Activity was “Active”.

And the Activity (Rattus norvegicus [22])?
Its Activity is 18.2%.

What about the Time (Mus musculus [23]) of the same molecule?
Its Time is 53.3 min.

And the Activity (Rattus norvegicus [24])?
The Activity was “inactive”.

What about the Activity (Mus musculus [25]) of the same molecule?
The Activity was “inactive”.

What about the Activity (Mus musculus [26]) of the same molecule?
The Activity was “Active”.

And the Activity (Mus musculus [27])?
The Activity was “inactive”.

What about the Stability (Plasma) of the same molecule?
Its Stability is “Unstable”.

What about the IC50 (NIH3T3) of the same molecule?
Its IC50 is 95 µM.

And the k el at 1 h, 5 µM [28]?
Its k el at 1 h, 5 µM is 0.000124 s⁻¹.

And the Activity (Mus musculus [29])?
Its Activity is “Active”.
